Legend:
[1] = system: ABCA1 expression (LXR target gene) in THP-1 cells; experiment: Expression of LXR target gene ABCA1 in THP-1 monocytic cell line; format: cell-based, human; settings: compound at 10 μM
[2] = target: T1, LXRα [NR1H3] ligand binding domain (Homo sapiens, UniProt Q13133); experiment: Radioligand binding assay with 3H-T0901317, LXRα ligand binding domain
T1 sequence (Q13133 209-447 limits assumed): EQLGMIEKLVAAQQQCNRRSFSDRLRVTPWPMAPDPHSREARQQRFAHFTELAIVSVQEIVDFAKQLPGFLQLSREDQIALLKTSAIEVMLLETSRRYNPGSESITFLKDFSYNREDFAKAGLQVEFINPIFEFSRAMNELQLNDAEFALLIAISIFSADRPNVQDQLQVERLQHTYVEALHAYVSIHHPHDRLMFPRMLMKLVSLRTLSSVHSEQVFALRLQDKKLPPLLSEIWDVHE

[3] = target: T2, LXRβ [NR1H2] ligand binding domain (Homo sapiens, UniProt P55055); experiment: Radioligand binding assay with 3H-T0901317, LXRβ ligand binding domain
T2 sequence (P55055 222-460 limits assumed): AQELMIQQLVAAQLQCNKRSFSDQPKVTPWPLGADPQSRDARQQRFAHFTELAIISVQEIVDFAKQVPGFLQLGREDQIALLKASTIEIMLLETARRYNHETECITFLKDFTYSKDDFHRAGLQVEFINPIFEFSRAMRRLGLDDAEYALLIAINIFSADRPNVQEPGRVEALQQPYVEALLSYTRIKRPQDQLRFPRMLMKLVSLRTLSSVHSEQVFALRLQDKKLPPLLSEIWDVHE

Structure (SMILES)	ABCA1 expression [1]	Ki [2]	Ki [3]
O=S(=O)(c1ccccc1)N(CC(F)(F)F)c1ccc(C(O)(C(F)(F)F)C(F)(F)F)cc1 [Compound T0901317, T0901317]	increasing the expression of ABCA1		
C[C@H](CCCC(C)(C)O)[C@H]1CC[C@H]2[C@@H]3CC=C4C[C@@H](O)CC[C@]4(C)[C@H]3CC[C@]12C [25-hydroxycholesterol]	increased the expression of ABCA1 as well, albeit at lower levels than T0901317	4 µM	6.9 µM

Reference: article PMC9419992 (Organic letters, 2022)
